# Measured values as given in ChEMBL document CHEMBL5046315, “CRCM5484: A BET-BDII Selective Compound with Differential Anti-leukemic Drug Modulation” (J Med Chem, 2022).
# Active and inactive are the calls of the source. The rule behind the calls is not given here.
# Legend:
# U-937 [1] = test: Potentiation of nelarabine-induced antileukemic activity against human U-937 cells at 4.3 uM in presence of bone-marrow derived stromal cell-conditioned medium; assay type: functional, cell-based
# MOLM-14 [2] = test: Potentiation of gileritinib-induced antileukemic activity against human MOLM-14 cells at 4.3 uM in presence of bone-marrow derived stromal cell-conditioned medium; assay type: functional, cell-based
# CCRF-CEM [3] = test: Potentiation of nelarabine-induced antileukemic activity against human CCRF-CEM cells at 4.3 uM in presence of bone-marrow derived stromal cell-conditioned medium; assay type: functional, cell-based
# U-937 [4] = test: Potentiation of etoposide-induced antileukemic activity against human U-937 cells at 4.3 uM in presence of bone-marrow derived stromal cell-conditioned medium; assay type: functional, cell-based
# CCRF-CEM [5] = test: Potentiation of cladribine-induced antileukemic activity against human CCRF-CEM cells at 4.3 uM in presence of bone-marrow derived stromal cell-conditioned medium; assay type: functional, cell-based
# MOLM-14 [6] = test: Potentiation of topotecan-induced antileukemic activity against human MOLM-14 cells at 4.3 uM in presence of bone-marrow derived stromal cell-conditioned medium; assay type: functional, cell-based
# [7] = molecular target: Chromatin remodeling regulator CECR2 (Homo sapiens) (UniProt Q9BXF3); test: Binding affinity to partial length human CECR2 (P423 to D543 residues) expressed in bacterial system at 1 uM by BROMOscan method relative to control
# MOLM-14 [8] = test: Potentiation of idelalisib-induced antileukemic activity against human MOLM-14 cells at 4.3 uM in presence of bone-marrow derived stromal cell-conditioned medium; assay type: functional, cell-based
# CCRF-CEM [9] = test: Potentiation of bortezomib-induced antileukemic activity against human CCRF-CEM cells at 4.3 uM in presence of bone-marrow derived stromal cell-conditioned medium; assay type: functional, cell-based
# MOLM-14 [10] = test: Potentiation of AraC-induced antileukemic activity against human MOLM-14 cells at 4.3 uM in presence of bone-marrow derived stromal cell-conditioned medium; assay type: functional, cell-based
# U-937 [11] = test: Potentiation of crenolatinib-induced antileukemic activity against human U-937 cells at 4.3 uM in presence of bone-marrow derived stromal cell-conditioned medium; assay type: functional, cell-based
# CCRF-CEM [12] = test: Potentiation of vincristine-induced antileukemic activity against human CCRF-CEM cells at 4.3 uM in presence of bone-marrow derived stromal cell-conditioned medium; assay type: functional, cell-based
# MOLM-14 [13] = test: Potentiation of sunitinib-induced antileukemic activity against human MOLM-14 cells at 4.3 uM in presence of bone-marrow derived stromal cell-conditioned medium; assay type: functional, cell-based
# CCRF-CEM [14] = test: Potentiation of tretinoin-induced antileukemic activity against human CCRF-CEM cells at 4.3 uM in presence of bone-marrow derived stromal cell-conditioned medium; assay type: functional, cell-based
# MOLM-14 [15] = test: Potentiation of everolimus-induced antileukemic activity against human MOLM-14 cells at 4.3 uM in presence of bone-marrow derived stromal cell-conditioned medium; assay type: functional, cell-based
# CCRF-CEM [16] = test: Potentiation of lapatinib-induced antileukemic activity against human CCRF-CEM cells at 4.3 uM in presence of bone-marrow derived stromal cell-conditioned medium; assay type: functional, cell-based
# CCRF-CEM [17] = test: Potentiation of palbociclib-induced antileukemic activity against human CCRF-CEM cells at 4.3 uM in presence of bone-marrow derived stromal cell-conditioned medium; assay type: functional, cell-based
# U-937 [18] = test: Potentiation of -nutlin 3-induced antileukemic activity against human U-937 cells at 4.3 uM in presence of bone-marrow derived stromal cell-conditioned medium; assay type: functional, cell-based
# MOLM-14 [19] = test: Potentiation of hydroxychloroquine-induced antileukemic activity against human MOLM-14 cells at 4.3 uM in presence of bone-marrow derived stromal cell-conditioned medium; assay type: functional, cell-based
# MOLM-14 [20] = test: Downregulation of Myc expression in human MOLM-14 cells incubated for 2 hrs by RT-PCR analysis; assay type: functional, cell-based; conditions: dose 5.0 µM
# U-937 [21] = test: Potentiation of midostaurin-induced antileukemic activity against human U-937 cells at 4.3 uM in presence of bone-marrow derived stromal cell-conditioned medium; assay type: functional, cell-based
# U-937 [22] = test: Potentiation of carfilzomib-induced antileukemic activity against human U-937 cells at 4.3 uM in presence of bone-marrow derived stromal cell-conditioned medium; assay type: functional, cell-based
# CCRF-CEM [23] = test: Potentiation of vermurafenib-induced antileukemic activity against human CCRF-CEM cells at 4.3 uM in presence of bone-marrow derived stromal cell-conditioned medium; assay type: functional, cell-based
# MOLM-14 [24] = test: Potentiation of clofarabine-induced antileukemic activity against human MOLM-14 cells at 4.3 uM in presence of bone-marrow derived stromal cell-conditioned medium; assay type: functional, cell-based
# CCRF-CEM [25] = test: Potentiation of bosutinib-induced antileukemic activity against human CCRF-CEM cells at 4.3 uM in presence of bone-marrow derived stromal cell-conditioned medium; assay type: functional, cell-based
# MOLM-14 [26] = test: Potentiation of 17AAG-induced antileukemic activity against human MOLM-14 cells at 4.3 uM in presence of bone-marrow derived stromal cell-conditioned medium; assay type: functional, cell-based
# U-937 [27] = test: Potentiation of GSK2879552-induced antileukemic activity against human U-937 cells at 4.3 uM in presence of bone-marrow derived stromal cell-conditioned medium; assay type: functional, cell-based
# U-937 [28] = test: Potentiation of GSK126-induced antileukemic activity against human U-937 cells at 4.3 uM in presence of bone-marrow derived stromal cell-conditioned medium; assay type: functional, cell-based
# CCRF-CEM [29] = test: Potentiation of BKM120-induced antileukemic activity against human CCRF-CEM cells at 4.3 uM in presence of bone-marrow derived stromal cell-conditioned medium; assay type: functional, cell-based
# MOLM-14 [30] = test: Potentiation of OTX015-induced antileukemic activity against human MOLM-14 cells at 4.3 uM in presence of bone-marrow derived stromal cell-conditioned medium; assay type: functional, cell-based
# U-937 [31] = test: Potentiation of 17AAG-induced antileukemic activity against human U-937 cells at 4.3 uM in presence of bone-marrow derived stromal cell-conditioned medium; assay type: functional, cell-based
# [32] = tested on: Acute myeloid leukemic cell; test: Potentiation of vorinostat-induced antileukemic activity against patient derived mouse xenografted acute myeloid leukemic cells assessed as cell viability at 0.16 to 10 uM in absence of bone-marrow derived stromal cell-conditioned medium measured after 72 to 144 hrs by cell-titre glo luminescent assay; assay type: functional, cell-based; conditions: Homo sapiens, dose 0.16-10 µM, time lower […], time upper 144.0 hrs
# CCRF-CEM [33] = test: Potentiation of JQ1-induced antileukemic activity against human CCRF-CEM cells at 4.3 uM in presence of bone-marrow derived stromal cell-conditioned medium; assay type: functional, cell-based
# MOLM-14 [34] = test: Potentiation of luminespid-induced antileukemic activity against human MOLM-14 cells at 4.3 uM in presence of bone-marrow derived stromal cell-conditioned medium; assay type: functional, cell-based
# U-937 [35] = test: Potentiation of AGI-5198-induced antileukemic activity against human U-937 cells at 4.3 uM in presence of bone-marrow derived stromal cell-conditioned medium; assay type: functional, cell-based
# [36] = molecular target: Bromodomain-containing protein 4 (Homo sapiens, UniProt O60885); test: Inhibition of BRD4-BD2 (unknown origin) incubated for 6 hrs by HTRF method
# CCRF-CEM [37] = test: Potentiation of OTX015-induced antileukemic activity against human CCRF-CEM cells at 4.3 uM in presence of bone-marrow derived stromal cell-conditioned medium; assay type: functional, cell-based
# MOLM-14 [38] = test: Potentiation of volasertib-induced antileukemic activity against human MOLM-14 cells at 4.3 uM in presence of bone-marrow derived stromal cell-conditioned medium; assay type: functional, cell-based
# MOLM-14 [39] = test: Potentiation of cyclopamine-induced antileukemic activity against human MOLM-14 cells at 4.3 uM in presence of bone-marrow derived stromal cell-conditioned medium; assay type: functional, cell-based
# MOLM-14 [40] = test: Potentiation of decitabine-induced antileukemic activity against human MOLM-14 cells at 4.3 uM in presence of bone-marrow derived stromal cell-conditioned medium; assay type: functional, cell-based
# Sequence of Chromatin remodeling regulator CECR2 (Homo sapiens) (Q9BXF3 whole entry, looked up, the tested form may be a part): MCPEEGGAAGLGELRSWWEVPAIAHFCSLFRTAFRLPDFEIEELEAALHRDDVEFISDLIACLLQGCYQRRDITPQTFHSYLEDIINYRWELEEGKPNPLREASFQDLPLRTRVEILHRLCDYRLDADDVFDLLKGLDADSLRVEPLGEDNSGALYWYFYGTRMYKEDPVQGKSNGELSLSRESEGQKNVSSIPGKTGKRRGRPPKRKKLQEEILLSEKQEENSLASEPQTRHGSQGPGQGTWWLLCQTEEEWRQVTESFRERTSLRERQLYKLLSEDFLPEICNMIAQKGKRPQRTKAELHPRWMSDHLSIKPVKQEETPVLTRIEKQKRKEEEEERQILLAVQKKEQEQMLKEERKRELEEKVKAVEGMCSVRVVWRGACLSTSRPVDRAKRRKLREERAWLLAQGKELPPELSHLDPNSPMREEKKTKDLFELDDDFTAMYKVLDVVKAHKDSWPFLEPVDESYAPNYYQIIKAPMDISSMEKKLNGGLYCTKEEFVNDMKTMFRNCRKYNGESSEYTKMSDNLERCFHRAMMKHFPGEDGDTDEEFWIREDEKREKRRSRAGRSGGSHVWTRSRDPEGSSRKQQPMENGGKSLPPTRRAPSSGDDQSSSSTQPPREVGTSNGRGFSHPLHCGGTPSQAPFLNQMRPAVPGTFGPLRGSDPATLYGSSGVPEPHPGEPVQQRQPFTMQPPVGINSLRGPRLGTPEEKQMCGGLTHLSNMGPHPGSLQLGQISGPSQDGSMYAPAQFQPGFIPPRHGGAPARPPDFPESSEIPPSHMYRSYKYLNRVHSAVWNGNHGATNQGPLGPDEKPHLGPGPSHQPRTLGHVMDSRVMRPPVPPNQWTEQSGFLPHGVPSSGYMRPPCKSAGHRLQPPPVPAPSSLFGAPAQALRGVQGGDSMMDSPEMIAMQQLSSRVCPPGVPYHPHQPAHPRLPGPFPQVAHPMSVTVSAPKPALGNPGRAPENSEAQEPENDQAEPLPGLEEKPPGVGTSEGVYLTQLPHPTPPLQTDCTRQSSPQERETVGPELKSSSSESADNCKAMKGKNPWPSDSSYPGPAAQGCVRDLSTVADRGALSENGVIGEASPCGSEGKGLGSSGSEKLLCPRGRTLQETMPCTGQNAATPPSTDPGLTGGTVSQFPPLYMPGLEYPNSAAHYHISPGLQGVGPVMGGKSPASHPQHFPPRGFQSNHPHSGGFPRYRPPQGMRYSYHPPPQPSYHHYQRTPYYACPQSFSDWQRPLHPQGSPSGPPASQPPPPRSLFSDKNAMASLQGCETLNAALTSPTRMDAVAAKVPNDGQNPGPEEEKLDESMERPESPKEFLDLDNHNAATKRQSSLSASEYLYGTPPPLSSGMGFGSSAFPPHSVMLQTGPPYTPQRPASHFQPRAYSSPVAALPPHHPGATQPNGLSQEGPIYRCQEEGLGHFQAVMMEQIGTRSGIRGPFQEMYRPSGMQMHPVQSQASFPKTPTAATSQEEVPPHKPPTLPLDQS
smiles,measurement,setting,value
CC(=O)N1CCc2c(sc3nc(SCC(=O)Nc4cccnc4C)n(Cc4ccco4)c(=O)c23)C1,Activity,U-937 [1],inactive
same,Activity,MOLM-14 [2],inactive
same,Activity,CCRF-CEM [3],inactive
same,Activity,U-937 [4],inactive
same,Activity,CCRF-CEM [5],inactive
same,Activity,MOLM-14 [6],inactive
same,Activity,[7],54%
same,Activity,MOLM-14 [8],inactive
same,Activity,CCRF-CEM [9],inactive
same,Activity,MOLM-14 [10],inactive
same,Activity,U-937 [11],inactive
same,Activity,CCRF-CEM [12],inactive
same,Activity,MOLM-14 [13],inactive
same,Activity,CCRF-CEM [14],inactive
same,Activity,MOLM-14 [15],inactive
same,Activity,CCRF-CEM [16],inactive
same,Activity,CCRF-CEM [17],inactive
same,Activity,U-937 [18],inactive
same,Activity,MOLM-14 [19],inactive
same,Activity,MOLM-14 [20],Dose-Dependent Effect
same,Activity,U-937 [21],inactive
same,Activity,U-937 [22],inactive
same,Activity,CCRF-CEM [23],inactive
same,Activity,MOLM-14 [24],inactive
same,Activity,CCRF-CEM [25],inactive
same,Activity,MOLM-14 [26],inactive
same,Activity,U-937 [27],inactive
same,Activity,U-937 [28],inactive
same,Activity,CCRF-CEM [29],inactive
same,Activity,MOLM-14 [30],inactive
same,Activity,U-937 [31],inactive
same,Activity,[32],inactive
same,Activity,CCRF-CEM [33],inactive
same,Activity,MOLM-14 [34],inactive
same,Activity,U-937 [35],inactive
same,IC50,[36],130 nM
same,Activity,CCRF-CEM [37],inactive
same,Activity,MOLM-14 [38],inactive
same,Activity,MOLM-14 [39],inactive
same,Activity,MOLM-14 [40],inactive
